Experiment [1] deals with hyperactivity induced by MK801. Nature of the experiment: Model of locomotor hyperactivity induced by MK801. Conditions: clozapine 1 mg/kg. The format is in vivo. The method, then: Given the pharmacological profile of the molecules chosen toward the noradrenergic and serotoninergic receptors, an antipsychotic activity was sought. The substances were tested in the model of locomotor hyperactivity induced by MK801. […] In this model and under our experimental conditions, clozapine (1 mg/kg) reduces by 56% the hyperactivity induced by MK 801.
Effect of the combination 1 mg/kg ifenprodil+1 mg/kg cyproheptadine on the locomotor activity induced by MK801 (cm covered, mean +SEM).

The conditions of experiment [2]: in vivo; cited from earlier work.
The subject of experiment [3] is alcohol withdrawal. Conditions: in vivo; cited from earlier work.
Experiment [4] relates to sensitization induced by amphetamine. Description: Behavioral sensitization protocol (amphetamine), locomotor activity in open-field. It is filed as in vivo, mice. The note with it: repeated sessions, amphetamine 2 mg/kg.
Description: (§1) The principle of the behavioral sensitization test is based on the measurement of the locomotor activity. The latter is measured in the open-field test.
(§2) The animals used are 9-week old C57/BL6J male mice at the beginning of the experiment.
(§3) The open-fields used to measure the activity are 4 square chambers made of transparent plexiglas. Each open-field is arranged in a setting equipped with photoelectric cells which make it possible to record the movements of the animal.
Groups receive beforehand an administration of one of the products or the combination of both.
During the 1st session, the animals receive NaCl at the 1st and 2nd injection. The experiment is performed over several sessions, 2 to 10 days apart.
The experiments were performed on 5 groups of animals which received the following treatments at each session.
Experiment [5] relates to C57/BL6J male mice. Nature of the experiment: Motor and exploratory activity test in open-field (effects of the products on the locomotor activity). The format is in vivo. Conditions: ifenprodil alone, doses of less than 10 mg/kg.
Description: as §1
Motor and Exploratory Activity Test in Open-Field
as §2, §3
The products used have known psychotropic properties. […] Since the principle of the study is based on the measurement of the locomotor activity, it is preferable to have a preliminary evaluation of these effects under the experimental conditions used.
All the products are dissolved in physiological saline (0.9% NaCl) so that the volume for injection is 10 ml/kg of body weight.
IFENPRODIL was tested at the following doses: 1 mg/kg; 3 mg/kg and 10 mg/kg.
The experiments were also performed in order to evaluate the effect of the combination of the products:
Experiment [6] relates to stimulant effects of alcohol. Conditions: in vivo; cited from earlier work.

We go through 2 compounds from patent publication US20080194631A1, “Medicament For the Treatment of Central Nervous System Disorders” (priority 2004, published 2008).

The structures appear in SMILES notation.

In the case of `CN1CCN(C2=Nc3cc(Cl)ccc3Nc3ccccc32)CC1` [clozapine], the “reduction of the hyperactivity induced by MK 801” value in experiment [1] is on record as 56%.

Consider `CC(C(O)c1ccc(O)cc1)N1CCC(Cc2ccccc2)CC1` (stereo not shown) [Ifenprodil], for which, in experiment [2], the anxiolytic effects entry is given as “anxiolytic effects”. In addition, the “effect on the physical signs induced by alcohol withdrawal” value in experiment [3] is “reduces”. In experiment [4], the “effect on the development (and expression) of behavioral sensitization to amphetamine” value is reported as “limited effects”. For the same compound, the effect on locomotion result in experiment [5] is “does not have a significant effect”. For the same compound, in experiment [6], the “effect on the expression of sensitization (alcohol)” value is given as “does not block” and the “effect on the stimulant effects of alcohol” value is on record as “reduces”.
